± gives the expanded uncertainty stated by the source.
Assay: activity coefficient (dimensionless); of the first substance listed, at infinite dilution; xn = mol fraction of the nth substance listed
Details: Liquid, Chromatography, x1 = 0

Cc1ccc(C)cc1 [1,4-dimethylbenzene] + CCCCCC[N+](C)(C)C.O=S(=O)([N-]S(=O)(=O)C(F)(F)F)C(F)(F)F
activity coefficient (322.65 K): 1.82 ± 0.079 | activity coefficient (343.85 K): 1.82 ± 0.079 | activity coefficient (352.65 K): 1.86 ± 0.081

Cc1ccccc1 [toluene] + CCCCCC[N+](C)(C)C.O=S(=O)([N-]S(=O)(=O)C(F)(F)F)C(F)(F)F
activity coefficient (322.65 K): 1.31 ± 0.045 | activity coefficient (343.85 K): 1.33 ± 0.046 | activity coefficient (352.65 K): 1.38 ± 0.05

CCCCCCCC [octane] + CCCCCC[N+](C)(C)C.O=S(=O)([N-]S(=O)(=O)C(F)(F)F)C(F)(F)F
activity coefficient (322.65 K): 19 ± 0.88 | activity coefficient (343.85 K): 16.8 ± 0.78 | activity coefficient (352.65 K): 16.2 ± 0.75

CCCCCCCCCCC [undecane] + CCn1cc[n+](C)c1.N#CN=C=[N-]
activity coefficient (322.65 K): 1030 ± 50 | activity coefficient (332.85 K): 926 ± 44 | activity coefficient (343.15 K): 834 ± 40

C#CCCCCC [1-heptyne] + CCn1cc[n+](C)c1.N#CN=C=[N-]
activity coefficient (322.65 K): 14.5 ± 0.67 | activity coefficient (332.85 K): 14.3 ± 0.66 | activity coefficient (343.15 K): 14.1 ± 0.65

CC1CCCCC1 [methylcyclohexane] + CCn1cc[n+](C)c1.N#CN=C=[N-]
activity coefficient (322.65 K): 73.9 ± 3.5 | activity coefficient (332.85 K): 67.1 ± 3.1 | activity coefficient (343.15 K): 61.3 ± 2.9

CCC(C)CC [3-methylpentane] + CCCCCC[N+](C)(C)C.O=S(=O)([N-]S(=O)(=O)C(F)(F)F)C(F)(F)F
activity coefficient (322.65 K): 8.65 ± 0.4 | activity coefficient (343.85 K): 8.09 ± 0.37 | activity coefficient (352.65 K): 7.88 ± 0.36

ClC(Cl)(Cl)Cl [tetrachloromethane] + CCCCCC[N+](C)(C)C.O=S(=O)([N-]S(=O)(=O)C(F)(F)F)C(F)(F)F
activity coefficient (322.65 K): 2.42 ± 0.11 | activity coefficient (343.85 K): 2.39 ± 0.11 | activity coefficient (352.65 K): 2.42 ± 0.11

C1CCCCCC1 [cycloheptane] + CCCCCC[N+](C)(C)C.O=S(=O)([N-]S(=O)(=O)C(F)(F)F)C(F)(F)F
activity coefficient (322.65 K): 14.3 ± 0.66 | activity coefficient (343.85 K): 33.3 ± 1.5 | activity coefficient (352.65 K): 43.4 ± 2

CC1CCCC1 [methylcyclopentane] + CCCCCC[N+](C)(C)C.O=S(=O)([N-]S(=O)(=O)C(F)(F)F)C(F)(F)F
activity coefficient (322.65 K): 6.61 ± 0.3 | activity coefficient (343.85 K): 5.96 ± 0.27 | activity coefficient (352.65 K): 5.83 ± 0.27

CC1CCCCC1 [methylcyclohexane] + CCCCCC[N+](C)(C)C.O=S(=O)([N-]S(=O)(=O)C(F)(F)F)C(F)(F)F
activity coefficient (322.65 K): 8.67 ± 0.4 | activity coefficient (343.85 K): 7.78 ± 0.36 | activity coefficient (352.65 K): 7.54 ± 0.35

CCCCCCCCCC [decane] + CCCCCC[N+](C)(C)C.O=S(=O)([N-]S(=O)(=O)C(F)(F)F)C(F)(F)F
activity coefficient (322.65 K): 36.8 ± 1.7 | activity coefficient (343.85 K): 31 ± 1.4 | activity coefficient (352.65 K): 29.6 ± 1.4

C=CCCCC [hex-1-ene] + CCCCCC[N+](C)(C)C.O=S(=O)([N-]S(=O)(=O)C(F)(F)F)C(F)(F)F
activity coefficient (322.65 K): 5.8 ± 0.27 | activity coefficient (343.85 K): 5.55 ± 0.25 | activity coefficient (352.65 K): 5.58 ± 0.26

Cc1cccc(C)c1 [1,3-dimethylbenzene] + CCCCCC[N+](C)(C)C.O=S(=O)([N-]S(=O)(=O)C(F)(F)F)C(F)(F)F
activity coefficient (322.65 K): 1.8 ± 0.077 | activity coefficient (343.85 K): 1.82 ± 0.078 | activity coefficient (352.65 K): 1.89 ± 0.083

CCC=O [propanal] + CCn1cc[n+](C)c1.N#CN=C=[N-]
activity coefficient (322.65 K): 1.4 ± 0.05 | activity coefficient (332.85 K): 1.39 ± 0.05 | activity coefficient (343.15 K): 1.37 ± 0.05

c1ccccc1 [benzene] + CCn1cc[n+](C)c1.N#CN=C=[N-]
activity coefficient (322.65 K): 2.57 ± 0.12 | activity coefficient (332.85 K): 2.56 ± 0.12 | activity coefficient (343.15 K): 2.56 ± 0.12

c1ccccc1 [benzene] + CCCCCC[N+](C)(C)C.O=S(=O)([N-]S(=O)(=O)C(F)(F)F)C(F)(F)F
activity coefficient (322.65 K): 0.99 ± 0.025 | activity coefficient (343.85 K): 0.993 ± 0.025 | activity coefficient (352.65 K): 1.02 ± 0.026

CCC(=O)CC [pentan-3-one] + CCn1cc[n+](C)c1.N#CN=C=[N-]
activity coefficient (322.65 K): 2.81 ± 0.13 | activity coefficient (332.85 K): 2.84 ± 0.13 | activity coefficient (343.15 K): 2.84 ± 0.13

c1ccncc1 [pyridine] + CCCCCC[N+](C)(C)C.O=S(=O)([N-]S(=O)(=O)C(F)(F)F)C(F)(F)F
activity coefficient (322.65 K): 0.336 ± 0.035 | activity coefficient (343.85 K): 0.589 ± 0.031 | activity coefficient (352.65 K): 0.607 ± 0.031

c1ccncc1 [pyridine] + CCn1cc[n+](C)c1.N#CN=C=[N-]
activity coefficient (322.65 K): 0.4 ± 0.03 | activity coefficient (332.85 K): 1.05 ± 0.03 | activity coefficient (343.15 K): 1.07 ± 0.03
